According to patent US5478825A, “5-(substituted amino)-1,2,4-triazolo (1,5-A) pyrimidine derivatives” (Egis Gyogyszergyar, priority 1991, dated 1995):

Legend:
[1] = test system: gastric acid secretion; test: Gastric acid secretion test; assay type: in vivo, rat
Experimental: 8. […] Rats of both sexes (Wistar breed, weighing 180-240 g) were fastened for 48 hours. On the day of the test the pylorus of the animals was bound under ether narcosis. The test compounds were administered orally 3 hours before the operation. 4 hours after the operation the animals were anaesthetized and the stomach was removed, the content thereof was centrifuged and the amount of the free acid was determined by titration, in the presence of Topfer reagent. The inhibition in relation to the control is calculated in percentage.

[2] = test system: hexobarbital narcosis; test: Narcosis potentiating activity (hexobarbital); assay type: in vivo, mice; details: for Narcosis potentiating effect: 100 mg/kg, orally, frequency of positive reaction, hexobarbital 40 mg/kg i.v.
Experimental: 6. Narcosis potentiating activity
Groups consisting of 6 mice each were orally treated with the compound to be examined. After one hour, hexobarbital [5-(1-cyclohexenyl)-1,5-dimethylbarbituric acid] was injected intravenously at a dosage of 40 mg/kg. The control group was treated only with hexobarbital to provoke sleep. The duration of sleep was recorded. If the duration of sleep of an animal exceeded that of the mean value of the control group by a factor of 2.5, it was considered as a positive reaction. The frequency of the positive reaction is expressed as the percentage of the value obtained for the control animals.

[3] = test system: motility of mice; test: Motility inhibiting activity; assay type: in vivo
Experimental: 5. Motility inhibiting activity
The tests were performed according to the method of Borsy et al. [Arch. Int. Pharmacodyn. 124, 1-2 (1960)]. Groups consisting of 3 mice each were treated orally with different doses of the compounds to be tested. Then the test animals were placed in a Dews equipment. In this equipment the number of interruptions of infrared beam within 30 minutes was counted. The inhibition is expressed as the percentage of the value obtained for the control animals.

[4] = test system: pentetrazole spasm; test: Spasmolytic activity on mice (pentetrazole spasm); assay type: in vivo; details: orally; for Inhibition of pentetrazole spasm: 100 mg/kg, pentetrazole 125 mg/kg i.p.
Experimental: 7. Spasmolytic activity on mice
The tests were carried out according to the modified method of Benzinger and Hane [Arch. Int. Pharmacodyn. 167, 245-249 (1959)]. Mice of both sexes (NMRI breed, body weight 20-25 g) were treated orally with the compounds to be tested. One hour after the administration pentetrazole (6,7,8,9-tetrahydro-5H-tetrazoloazepine) was given intraperitoneally in a dosis of 125 mg/kg. The tonic-extensoric spasms on the hind limbs were registered. As reference compound 3,5,5-trimethyl-oxazolidine-2,4-dione (trimetadione) was used.

CN/C(=N/CCSCc1nc[nH]c1C)NC#N [Cimetidine, reference compound]
Inhibition (gastric acid secretion) ([1]; 200 mg/kg p.o.): 91%

CCN(CC)c1c2c(nc3nc(SC)nn13)CCC2 [Example 1, 5-(Diethylamino)-2-(methylthio)-6,7-dihydro-8H-cyclopenta[d]-1,2,4-triazolo[1,5-a]pyrimidine]
Inhibition (gastric acid secretion) ([1]; 200 mg/kg p.o.): 75%

OCCN(CCO)c1c2c(nc3nc(N4CCOCC4)nn13)CCC2 [Example 11, 5-[N-bis(2-Hydroxyethyl)]amino-2-morpholino-6,7-dihydro-8H-cyclopenta[d]-1,2,4-triazolo[1,5-a]pyrimidine]
Narcosis potentiating effect [2]: 67%

C1Cc2nc3nc(N4CCOCC4)nn3c(N3CCOCC3)c2C1 [Example 15, 2,5-Dimorpholino-6,7-dihydro-8H-cyclopenta[d]-1,2,4-triazolo[1,5-a]pyrimidine]
Change in motility vs control ([3]; 100 mg/kg, orally): -65% | Inhibition of pentetrazole spasm [4]: -50%

CSc1nc2nc3c(c(NCCN4CCOCC4)n2n1)CCCC3 [Example 18, 2-(Methylthio)-5-[N-(2-morpholinoethyl)]amino-6,7,8,9-tetrahydro-1,2,4-triazolo[5,1-b]quinazoline]
Inhibition of pentetrazole spasm [4]: -56%

Cc1cc(N(CCO)Cc2ccccc2)n2nc(N3CCOCC3)nc2n1 [Example 24, 5-[N-Benzyl-N-(2-hydroxyethyl)]amino-7-methyl-2-morpholino-1,2,4-triazolo[1,5-a]pyrimidine]
Narcosis potentiating effect [2]: 67%

CCCC(C)(COC(N)=O)COC(N)=O [Meprobamate, reference compound]
ED50 ([3]; Mus musculus, po, read-out: ED50 (motility inhibition)): 232 mg/kg | motility inhibition (in words) ([3]; dose of 100 mg/kg): inactive | ED50 ([2]; Mus musculus, po, read-out: ED50 (narcosis potentiating effect)): 260 mg/kg | narcosis potentiating effect (in words) ([2]; dose of 100 mg/kg): inactive

CN1C(=O)OC(C)(C)C1=O [Trimetadione, 3,5,5-trimethyl-oxazolidine-2,4-dione, reference compound]
ED50 ([4]; Mus musculus, po, read-out: ED50 (inhibition of pentetrazole spasm)): 400 mg/kg

COc1cc(C(=S)N2CCOCC2)cc(OC)c1OC [Trithiozine, reference compound]
Inhibition (gastric acid secretion) ([1]; 400 mg/kg p.o.): 63%
